Where two headings read alike, the source gives them in different places.
Legend:
ZR 75-1 = assay: Proliferation, amount of ATP after 6 days, ZR 75-1; assay type: cell-based, human; details: for activity at 0.0001 µM: +E2 (0.1 nM), 6 days
Protocol: The growth is determined by measuring the amount of ATP in the cells after incubation with ligands for 6 days. […]
Samples of the cells ZR 75-1 (8000 cells/well) and MCF7 (4000 cells/well), respectively, were distributed into microtiter plates having 96 wells.
The following hormone additions were made:
The medium was replaced by fresh medium of the same composition as on day 6, and hormone additions as on day 6.
6 days after hormone addition the number of cells and their morphology were investigated. Medium from each well was poured off. To each well was added 100 μl 1% TCA (trichloro acetic acid).

MCF7 = assay: Proliferation, amount of ATP after 6 days, MCF7; details: for effect on growth: MCF7; for activity at 0.0001 µM: +E2 (0.1 nM)

SMILES	effect on growth (ZR 75-1; 10^-7 M Tamoxifen alone, listed as Tamoxifen)	effect on growth (ZR 75-1; 10^-7 M Tamoxifen alone, listed as tamoxifen)	activity at 1 µM (ZR 75-1; Homo sapiens, ZR-75-1, 144 h, + 10^-6 M Tam, -E2, 6 days, read-out: relative amount of ATP (no hormone added = 1))	activity at 0.1 µM (ZR 75-1; Homo sapiens, ZR-75-1, 144 h, + 10^-7 M Tam, -E2, 6 days, read-out: relative amount of ATP (no hormone added = 1))	activity at 0.01 µM (ZR 75-1; Homo sapiens, ZR-75-1, 144 h, + 10^-8 M Tam, -E2, 6 days, read-out: relative amount of ATP (no hormone added = 1))	activity at 0.001 µM (ZR 75-1; Homo sapiens, ZR-75-1, 144 h, + 10^-9 M Tam, -E2, 6 days, read-out: relative amount of ATP (no hormone added = 1))	Tamoxifen concentration at which an antagonistic effect can be seen (ZR 75-1; presence of 0.1 nM E2)	activity at 1 µM (MCF7; Homo sapiens, MCF7, 144 h, read-out: relative amount of ATP (no hormone added = 1), MCF7, + 10^-6 M Tam, -E2, 6 days)	activity at 0.1 µM (MCF7; Homo sapiens, MCF7, 144 h, read-out: relative amount of ATP (no hormone added = 1), MCF7, + 10^-7 M Tam, -E2, 6 days)	activity at 0.01 µM (MCF7; Homo sapiens, MCF7, 144 h, read-out: relative amount of ATP (no hormone added = 1), MCF7, + 10^-8 M Tam, -E2, 6 days)	activity at 0.001 µM (MCF7; Homo sapiens, MCF7, 144 h, read-out: relative amount of ATP (no hormone added = 1), MCF7, + 10^-9 M Tam, -E2, 6 days)	effect on growth (MCF7; Tamoxifen alone)	effect on growth (ZR 75-1; 0.1 nM E2)	activity at 0.0001 µM (ZR 75-1; Homo sapiens, ZR-75-1, 144 h, No LY 117018 added, Experiment 2, read-out: relative amount of ATP (no hormone added = 1))	activity at 0.0001 µM (ZR 75-1; Homo sapiens, ZR-75-1, 144 h, No Tam added, Experiment 1, read-out: relative amount of ATP (no hormone added = 1))	activity at 0.0001 µM (MCF7; Homo sapiens, MCF7, 144 h, read-out: relative amount of ATP (no hormone added = 1), MCF7, No LY 117018 added, 6 days, Experiment 2)	activity at 0.0001 µM (MCF7; Homo sapiens, MCF7, 144 h, read-out: relative amount of ATP (no hormone added = 1), MCF7, No Tam added, 6 days, Experiment 1)	effect on growth (MCF7; 0.1 nM E2)
CC/C(=C(\c1ccccc1)c1ccc(OCCN(C)C)cc1)c1ccccc1 [Tam, tamoxifen]	functions as a weak agonist	weak agonistic effect	131%	155%	109%	91%	10^-6 M	94%	109%	122%	96%	has no effect						
C[C@]12CC[C@@H]3c4ccc(O)cc4CC[C@H]3[C@@H]1CC[C@@H]2O [E2, estradiol]													increase their growth dramatically	468%	351%	230%	266%	increase their growth dramatically

From patent US5578445A, “In vitro method of evaluating the effects of a substance” (priority 1991, dated 1996)
